For test [1], the system named is rough mutant E. coli J5 bacteria. Put plainly: Radial diffusion bactericidal assay, E. coli J5. The test is classed as cell-based. The note with it: radial diffusion; for bactericidal activity (in words): E. coli J5; for pmol added to well to achieve a 30 mm^2 bactericidal zone, E. coli J5: PROBIT analysis, E. coli J5 (rough). In short, it runs like this:
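Wells received 5 or 10 μL of BPI fragment, pre-incubated 3 h at 37 °C. The underlayer agarose carried washed log-phase organisms at 4×10^6 CFU/mL.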

Test [2] is described as follows: 3H-heparin binding assay (affinity and capacity). The following applies: for Heparin Capacity: heparin bound at saturation; for Kd: read-out: Heparin Affinity. In short, it runs like this:
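Bound 3H-heparin was counted by liquid scintillation after 1 h incubation at 4 °C with fragments immobilised on PVDF-bottomed wells, then washing in blocking buffer. Signal was corrected for BSA-related background, and varying amounts of rBPI23 were used as positive control.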

In test [3] the test system is E. coli 0111:B4 (smooth) bacteria. Put plainly: Radial diffusion bactericidal assay, E. coli 0111:B4. The test is classed as cell-based. The note with it: radial diffusion; PROBIT analysis; E. coli O111:B4 (smooth).
In the next test the test system is Staphylococcus aureus. Put plainly: Radial diffusion bactericidal assay, Staphylococcus aureus. It counts as cell-based. The note with it: radial diffusion; PROBIT analysis; S. aureus.
Test [4] can be described thus: In vitro heparin-mediated lengthening of APTT / clotting time of heparinized plasma. The following applies: FIG. 12g. The test is classed as biochemical, human. Here is the method:
In vitro, the effect of BPI combination functional domain peptides was determined on heparin-mediated lengthening of activated partial […] (APTT). The APTT is lengthened by the presence of endogenous or exogenous inhibitors of thrombin formation, such as therapeutically administered heparin. Thus, agents which neutralize the anti-coagulant effects of heparin will reduce the APTT measured by the test. Citrated human plasma (200 μL) was incubated for 1 minute at 37° C. with either 15 μL of diluent (0.15 M NaCl, 0.1 M Tris-HCl, pH 7.4) or 15 μL of the diluent also containing 25 μg/mL heparin (187 units/mg). Various concentrations (from 0.0 to 56 μg/mL) of rBPI23, rBPI21Δcys, or BPI combination peptides BPI.29 (the DIII homodimer) and BPI.30 (heterodimer DII+DIII) in a volume of 15 μL were added, followed immediately by 100 μL of thrombin reagent (Catalog No. 845-4, Sigma Chemical Co., St. Louis. MO). Clotting time ([…]) was measured using a BBL Fibrometer (Becton Dickenson Microbiology Systems, Cockeysville, Md.). […] FIG. 12e illustrates the results obtained with BPI.30 on a non-log scale.

For test [5], the system named is zymosan-stimulated NO production by RAW 264.7 cells. The test is described as follows: Zymosan-stimulated NO production by RAW 264.7 cells. The test is classed as cell-based, mouse. Here is the method: (§1) An additional LPS neutralization screening assay for BPI functional domain peptides was developed using an assay for NO production in mouse cells treated with LPS (see Lorsbach et al., 1993, J. Biol. Chem. 268: 1908-1913). In this assay, mouse RAW 264.7 cells (ATCC Accession No. TIB71) were treated with bacterial LPS. The cells were incubated in 96-well plates and stimulated for 2 hours with E. coli 0113 LPS or zymosan, in the presence or absence of _-interferon, rLBP, fetal bovine serum (FBS) or normal human serum (NHS), or rBPI21Δcys. After this incubation, the cells were washed with fresh media and incubated overnight in media containing 10% FCS. The NO released from the cells accumulated in the media and spontaneously converted to nitrite. This nitrite was assayed in situ by the Griess reaction, as follows. The nitrite was reacted with the primary amine of an added sulfanilamide and formed a diazonium salt. This salt was then reacted with added naphthylethylenediamine to form a red azo-dyc. The Griess reaction was performed at room temperature in about 10 minutes. The amount of produced NO was estimated from a standard curve of Griess reaction products determined spectrophotometrically as Absorbance at a wavelength of 550 nm.

Test [6] is described as follows: LPS binding by tryptophan fluorescence quenching. The text has this:
(§2) The naturally-occurring amino acid tryptophan can emit light (i.e., it fluoresces) having a wavelength between 300 and 400 nm after excitation with light having a wavelength of between about 280 nm and 290 nm, preferably 285 nm. The amount of emitted light produced by such fluorescence is known to be affected by the local environment, including pH and buffer conditions, as well as binding interactions between proteins and other molecules. Some BPI functional domain peptides derived from domains II and III contain tryptophan residues, and tryptophan fluorescence was used to assay binding interactions between the BPI functional domain peptides of the invention and LPS or heparin.
(§3) Tryptophan fluorescence of the BPI functional domain peptides of the invention was determined in the presence or absence of LPS or heparin using a SPEX Fluorolog fluorimeter. Samples were excited with 285 nm light using a 0.25 nm slitwidth. Emission wavelengths were scanned between 300-400 nm using a 1.25 nm slitwidth. Data were accumulated as the average of three determinations performed over an approximately 5 min time span. Samples were maintained at 25° C. or 37° C. during the course of the experiments using a circulating water bath. Crab endotoxin binding protein (CEBP), a protein wherein the intrinsic fluorescence of tryptophan residues is affected by binding to LPS, was used as a positive control. (See Wainwright et al., 1990, Cellular and Molecular Aspects of Endotoxin Reactions, Nowotny et al., eds., Elsevier Science Publishing B.V., The Netherlands, pp. 315-325).
(§4) Kd values were determined by Scatchard-type Stern-Volmer plots of the quenching data as the negative inverse of the slope of such plots. Comparing the data for BPI.10, BPI.46 and BPI.47, it is seen that as the Kd decreased (indicating an increase in avidity for LPS), the percent fluorescence quenching increased. The differences between these peptides include replacement of basic and polar amino acid residues with non-polar residues in […] as compared with BPI.10. In contrast, as the Kd of heparin binding decreased, a corresponding increase in the percentage of fluorescence quenching was not detected.

Test [7] can be described thus: Heparin binding by tryptophan fluorescence quenching.
Description: as §2, §3, §4

The nature of test [8]: Lipid A binding competition with [125I]-rLBP. The following applies: for IC50: read-out: IC50 (inhibition of Lipid A binding of radiolabeled rLBP). The procedure: A second binding assay was developed, wherein radiolabeled recombinant LPS binding protein ([^125I]-rLBP) was used instead of radiolabeled rBPI23 in competition experiments with BPI functional domain peptides BPI.2, BPI.3, BPI.4, BPI.5, BPI.7, BPI.13, BPI.14, BPI.29, BPI.30 and BPI.48, rBPI, rBPI21Δcys, and rLBP25 were included in these assays as controls. In these experiments, Lipid A was adsorbed to the wells at a concentration of 0.7 μg/mL in methanol. Incubation of radiolabeled rLBP (a total of 650,000 cpm and a specific activity of 3.45 μCi/μg) was performed for 2.5 hr at 37° C. in the presence of BPI peptides in a series of increasing concentrations. IC50 values (i.e., the concentration at which Lipid A binding of radiolabeled rLBP25 is inhibited to one half the value achieved in the absence of the peptide) are shown in accompanying Table XI.

The test system of test [9] is LPS-stimulated NO production by RAW 264.7 cells. The test is described as follows: LPS-stimulated NO production by RAW 264.7 cells. It counts as cell-based, mouse. Here is the method: as §1

Six molecules from patent publication US20040023884A1, “Biologically active peptides from functional domains of bactericidal/permeability-increasing protein and uses thereof” (priority 1993, published 2004) can be followed below.

In general, IC50 refers to the concentration needed to halve the response being measured.

As for LQKELKRIKIPDYSDSFKIKHL [BPI.4], in [1], the “bactericidal activity (in words)” value is “little or no bactericidal activity” and the “pmol added to well to achieve a 30 mm^2 bactericidal zone, E. coli J5” value is listed as “b (no detectable activity up to 5 μg/well)”. In addition, in [2], the “heparin binding capacity (in words)” value is “low heparin binding capacity”, the “Heparin Capacity” value was 80.8 ng and the Kd worked out at 336 nM. In [3], the “pmol added to well to achieve a 30 mm^2 bactericidal zone, E. coli O111:B4” value is “b (no detectable activity up to 5 μg/well)”. For the same molecule, the “pmol added to well to achieve a 30 mm^2 bactericidal zone, S. aureus” value with Staphylococcus aureus is reported as “b (no detectable activity up to 5 μg/well)”. The “effect on the clotting time of heparinized blood (in words)” value (“effect on the clotting time” below) in test [4] is reported as “less of a decrease in clotting times”. In addition, in [5], the “inhibition of zymosan-stimulated NO production (in words)” value is “not inhibited”.

Take GTAALQKELKRIKIPDYSDSFKIKHLGKGH [BPI.14]: in test [1], the “bactericidal activity (in words)” value is reported as “little or no bactericidal activity” and the “pmol added to well to achieve a 30 mm^2 bactericidal zone, E. coli J5” value is “b (no detectable activity up to 5 μg/well)”. For the same molecule, in [2], the “heparin binding capacity (in words)” value was “low heparin binding capacity”, the “Heparin Capacity” value came to 119.3 ng and the Kd is 396 nM. Also, the “pmol added to well to achieve a 30 mm^2 bactericidal zone, E. coli O111:B4” value in test [3] is reported as “b (no detectable activity up to 5 μg/well)”. Also, the “pmol added to well to achieve a 30 mm^2 bactericidal zone, S. aureus” value in the test on Staphylococcus aureus was “b (no detectable activity up to 5 μg/well)”. The “effect on the clotting time” value in [4] is “less of a decrease in clotting times”. Further, the “inhibition of zymosan-stimulated NO production (in words)” value in test [5] is on record as “not inhibited”.

With BPI 73 (IKISGKWKAQFRFLK), the “Quenching LPS” value in [6] amounted to 47%. Also, the Kd in [6] (Stern-Volmer plots) worked out at 66 nM; in [7] (Stern-Volmer plots) it was 700 nM. For the same molecule, the “Quenching Heparin” value in test [7] amounted to 19%.

B1: rLBP: recombinant lipopolysaccharide binding protein (LBP holoprotein) (protein, UniProt P18428 26-481, looked up)
Lipopolysaccharide-binding …: ANPGLVARITDKGLQYAAQEGLLALQSELLRITLPDFTGDLRIPHVGRGRYEFHSLNIHSCELLHSALRPVPGQGLSLSISDSSIRVQGRWKVRKSFFKLQGSFDVSVKGISISVNLLLGSESSGRPTVTASSCSSDIADVEVDMSGDLGWLLNLFHNQIESKFQKVLESRICEMIQKSVSSDLQPYLQTLPVTTEIDSFADIDYSLVEAPRATAQMLEVMFKGEIFHRNHRSPVTLLAAVMSLPEEHNKMVYFAISDYVFNTASLVYHEEGYLNFSITDDMIPPDSNIRLTTKSFRPFVPRLARLYPNMNLELQGSVPSAPLLNFSPGNLSVDPYMEIDAFVLLPSSSKEPVFRLSVATNVSATLTFNTSKITGFLKPGKVKVELKESKVGLFNAELLEALLNYYILNTFYPKFNDKLAEGFPLPLLKRVQLYDLGLQIHKDFLFLGANVQYMRV
Consider B1, for which, in test [5], the “inhibition of zymosan-stimulated NO production (in words)” value is “no significant inhibition”.

B2: rLBP25: LBP amino-terminal fragment, first 197 amino acids of lipopolysaccharide binding protein (protein)
chain: MGALARALPSILLALLLTSTPEALGANPGLVARITDKGLQYAAQEGLLALQSELLRITLPDFTGDLRIPHVGRGRYEFHSLNIHSCELLHSALRPVPGQGLSLSISDSSIRVQGRWKVRKSFFKLQGSFDVSVKGISISVNLLLGSESSGRPTVTASSCSSDIADVEVDMSGDLGWLLNLFHNQIESKFQKVLESRICEMIQKSVSSDLQPYLQTLPVTTEIDSFADIDYSLVEAPRATAQMLEVMFKGEIFHRNHRSPVTLLAAVMSLPEEHNKMVYFAISDYVFNTASLVYHEEGYLNFSITDEMIPPDSNIRLTTKSFRPFVPRLARLYPNMNLELQGSVPSAPLLNFSPGNLSVDPYMEIDAFVLLPSSSKEPVFRLSVATNVSATLTFNTSKITGFLKPGKVKVELKESKVGLFNAELLEALLNYYILNTFYPKFNDKLAEGFPLPLLKRVQLYDLGLQIHKDFLFLGANVQYMRV
Take B2: in [4], the “effect on the clotting time” value was “less of a decrease in clotting times”. Moreover, in test [8], the “IC50 (inhibition of Lipid A binding of radiolabeled rLBP)” value was determined as 15 µg/mL and the IC50 came out at 600 nM. In addition, the “inhibition of LPS-stimulated NO production (in words)” value in [9] is recorded as “inhibited in a concentration-dependent manner”. Besides, the “inhibition of zymosan-stimulated NO production (in words)” value in test [5] was “No inhibition”.

B3: rBPI: recombinant BPI holoprotein (SEQ ID NO:69) (protein)
chain: MRENMARGPCNAPRWVSLMVLVAIGTAVTAAVNPGVVVRISQKGLDYASQQGTAALQKELKRIKIPDYSDSFKIKHLGKGHYSFYSMDIREFQLPSSQISMVPNVGLKFSISNANIKISGKWKAQKRFLKMSGNFDLSIEGMSISADLKLGSNPTSGKPTITCSSCSSHINSVHVHISKSKVGWLIQLFHKKIESALRNKMNSQVCEKVTNSVSSKLQPYFQTLPVMTKIDSVAGINYGLVAPPATTAETLDVQMKGEFYSENHHNPPPFAPPVMEFPAAHDRMVYLGLSDYFFNTAGLVYQEAGVLKMTLRDDMIPKESKFRLTTKFFGTFLPEVAKKFPNMKIQIHVSASTPPHLSVQPTGLTFYPAVDVQAFAVLPNSSLASLFLIGMHTTGSMEVSAESNRLVGELKLDRLLLELKHSNIGPFPVELLQDIMNYIVPILVLPRVNEKLQKGFPLPTPARVQLYNVVLQPHQNFLLFGADVVYK
Consider B3, for which, in test [4], the “effect on the clotting time” value is on record as “less of a decrease in clotting times”. Also, in test [8], the “IC50 (inhibition of Lipid A binding of radiolabeled rLBP)” value amounted to 0.65 µg/mL and the half-maximal inhibitory concentration (IC50) was determined as 13 nM. Moreover, in test [9], the “inhibition of LPS-stimulated NO production (in words)” value is reported as “inhibited in a concentration-dependent manner”. Further, in test [5], the “inhibition of zymosan-stimulated NO production (in words)” value was “no significant inhibition”.
